Assay results as given in patent publication US11980689B2 (AVALYN PHARMA INC., priority 2013, dated 2024).
Structures can show the parent of a compound that is named as a salt.

What was measured:
[1] = tested on: sol elastase of CF sputum; conditions: unprocessed CF sputum directly treated; cited from earlier work
[2] = target: T1, purified human neutrophil elastase (Homo sapiens, UniProt P08246); conditions: cited from earlier work
T1 sequence (P08246 30-247 limits assumed): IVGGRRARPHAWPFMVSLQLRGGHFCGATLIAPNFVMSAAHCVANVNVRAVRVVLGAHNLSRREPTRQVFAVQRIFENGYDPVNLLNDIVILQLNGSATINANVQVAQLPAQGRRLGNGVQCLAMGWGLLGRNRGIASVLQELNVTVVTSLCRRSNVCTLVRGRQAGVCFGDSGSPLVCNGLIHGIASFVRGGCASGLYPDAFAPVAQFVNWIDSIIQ

[3] = tested on: bleomycin-induced pulmonary fibrosis; conditions: both agents from Days 14; cited from earlier work
lung fibroblasts = conditions: 800 μg/ml of AGP, in vitro; cited from earlier work
cancer = conditions: cited from earlier work
SCLC = conditions: oral 600 mg daily up to 12 months; cited from earlier work
c-kit = c-kit (Homo sapiens, UniProt P10721); conditions: cited from earlier work
newly diagnosed CML = conditions: cytogenetic and haematological response, time to progression; cited from earlier work
[4] = tested on: COL1A1-PDGFβ-transformed fibroblasts, DFSP and giant-cell fibrosarcoma cell cultures; conditions: in vitro and in vivo; cited from earlier work
[5] = tested on: relapsed/refractory multiple myeloma; conditions: cited from earlier work
[6] = intravenous; cited from earlier work
[7] = tested on: primary human fibroblasts; assay: PDGF-induced fibroblast proliferation (MTS assay); conditions: for Proliferation (relative proliferation), Short Duration / Proliferation (relative proliferation), Long Duration: 20 ng/mL PDGF-BB, 72 hours, MTS; for inhibiting PDGF-induced fibroblast proliferation (in words) / cytotoxicity of drug concentrations tested: 0.5 to 50 nM; for cytotoxicity of drug concentrations tested: data not shown; for IC50: read-out: fifty-percent inhibitory concentration (IC50), PDGF-induced fibroblast proliferation, short-term exposure
[8] = bortezomib 1.3 mg/m2 vs high-dose dexamethasone
[9] = 0.5 nM drug 30 min pretreatment then washed
[10] = 5.0 nM drug 30 min pretreatment then washed
[11] = 50.0 nM drug 30 min pretreatment then washed

c-kit, sequence (P10721 26-976): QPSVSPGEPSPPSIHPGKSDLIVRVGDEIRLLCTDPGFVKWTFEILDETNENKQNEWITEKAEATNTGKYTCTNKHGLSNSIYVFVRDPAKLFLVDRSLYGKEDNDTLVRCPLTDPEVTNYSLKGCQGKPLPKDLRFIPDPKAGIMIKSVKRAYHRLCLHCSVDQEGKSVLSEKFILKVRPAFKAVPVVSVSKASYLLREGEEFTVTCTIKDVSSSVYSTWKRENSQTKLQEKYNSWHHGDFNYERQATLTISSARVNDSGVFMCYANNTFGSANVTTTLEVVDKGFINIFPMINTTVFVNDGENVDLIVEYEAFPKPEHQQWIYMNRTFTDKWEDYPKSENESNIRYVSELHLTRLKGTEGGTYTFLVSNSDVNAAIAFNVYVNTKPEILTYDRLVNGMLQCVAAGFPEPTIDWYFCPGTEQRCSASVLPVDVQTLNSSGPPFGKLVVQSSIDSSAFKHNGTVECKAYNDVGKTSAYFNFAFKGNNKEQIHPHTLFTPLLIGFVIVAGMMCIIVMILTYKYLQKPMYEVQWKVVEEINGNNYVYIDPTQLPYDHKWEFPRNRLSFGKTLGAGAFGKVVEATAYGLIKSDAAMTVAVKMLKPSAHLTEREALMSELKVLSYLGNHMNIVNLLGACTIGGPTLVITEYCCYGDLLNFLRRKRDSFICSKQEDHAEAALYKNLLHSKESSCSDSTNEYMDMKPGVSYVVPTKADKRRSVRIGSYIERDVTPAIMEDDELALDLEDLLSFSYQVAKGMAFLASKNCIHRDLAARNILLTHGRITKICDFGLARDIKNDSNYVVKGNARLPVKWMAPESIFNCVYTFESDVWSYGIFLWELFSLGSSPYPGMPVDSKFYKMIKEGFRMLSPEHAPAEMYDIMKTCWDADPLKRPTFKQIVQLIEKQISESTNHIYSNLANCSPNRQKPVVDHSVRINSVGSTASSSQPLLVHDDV

O=C(O)CCCC[C@@H](S)CCS (racemic) [DHLA, dihydrolipoic acid]
increase of sol elastase activity [1]: did not increase | inhibition of purified human neutrophil elastase (in words) [2]: inhibited

CC[C@H]1OC(=O)[C@H](C)[C@@H](O[C@H]2C[C@@](C)(OC)[C@@H](O)[C@H](C)O2)[C@H](C)[C@@H](O[C@@H]2O[C@H](C)C[C@H](N(C)C)[C@H]2O)[C@](C)(O)C[C@@H](C)C(=O)[C@H](C)[C@@H](O)[C@]1(C)O [erythromycin]
bleomycin-induced pulmonary fibrosis, combined use with imatinib [3]: attenuated | concentration required to abrogate the effects of AGP (lung fibroblasts): more than 1 μM

N#CC1(c2ccc(NC(=O)c3cccnc3NCc3ccncc3)cc2)CCCC1 [Apatinib]
dose limiting toxicities (cancer; 1000 mg/day): 3 of 3 | complete response (cancer; 65 cancer patients, Phase I/II): 1.54% | partial response (cancer; 65 cancer patients, Phase I/II): 12.31% | progressive disease (cancer; 65 cancer patients, Phase I/II): 20% | stable disease (cancer; 65 cancer patients, Phase I/II): 66.15% | maximum tolerated dose (cancer; human, in vivo): 850 mg/day

Cc1ccc(NC(=O)c2ccc(CN3CCN(C)CC3)cc2)cc1Nc1nccc(-c2cccnc2)n1 [imatinib mesylate]
antitumor activity (SCLC): no observed antitumor activity | signal transduction cascade triggered by c-kit activation (c-kit): sufficiently blocked

CC[C@H]1OC(=O)[C@H](C)[C@@H](O[C@H]2C[C@@](C)(OC)[C@@H](O)[C@H](C)O2)[C@H](C)[C@@H](O[C@@H]2O[C@H](C)C[C@H](N(C)C)[C@H]2O)[C@](C)(OC)C[C@@H](C)C(=O)[C@H](C)[C@@H](O)[C@]1(C)O [clarithromycin]
bleomycin-induced pulmonary fibrosis, combined use with imatinib [3]: attenuated | concentration required to abrogate the effects of AGP (lung fibroblasts): > 10 µM

DNase
increase of sol elastase activity [1]: 190%

Cc1ccc(NC(=O)c2ccc(CN3CCN(C)CC3)cc2)cc1Nc1nccc(-c2cccnc2)n1 [Glivec]
efficacy vs interferon and low-dose cytarabine (newly diagnosed CML): superior efficacy | effect on cells [4]: inhibited

CC(C)C[C@H](NC(=O)[C@H](Cc1ccccc1)NC(=O)c1cnccn1)B(O)O [Bortezomib]
1-year survival [5, 8]: 80% | median TTP [5, 8]: 6.2 months | patients with peripheral neuropathy ([5]; human, in vivo): 30% | clearance [6]: rapidly cleared | time to peak concentrations [6]: about 30 minutes

COC(=O)c1ccc2c(c1)NC(=O)/C2=C(\Nc1ccc(N(C)C(=O)CN2CCN(C)CC2)cc1)c1ccccc1 [Vargatef]
Proliferation (relative proliferation), Short Duration [7, 9]: 0.115 | Proliferation (relative proliferation), Long Duration ([7]; 0.5 nM drug kept in media): 0.003 | Proliferation (relative proliferation), Short Duration [7, 10]: 0.011 | Proliferation (relative proliferation), Long Duration ([7]; 5.0 nM drug kept in media): −0.359 | Proliferation (relative proliferation), Short Duration [7, 11]: −0.175 | Proliferation (relative proliferation), Long Duration ([7]; 50.0 nM drug kept in media): −0.642 | inhibiting PDGF-induced fibroblast proliferation (in words) [7]: dose-responsive | cytotoxicity of drug concentrations tested [7]: not cytotoxic | IC50 [7]: ~3 nM

CNC(=O)c1cc(Oc2ccc(NC(=O)Nc3ccc(Cl)c(C(F)(F)F)c3)cc2)ccn1 [Sorafinib, sorafinib]
Proliferation (relative proliferation), Short Duration [7, 9]: 0.117 | Proliferation (relative proliferation), Long Duration ([7]; 0.5 nM drug kept in media): 0.313 | Proliferation (relative proliferation), Short Duration [7, 10]: −0.010 | Proliferation (relative proliferation), Long Duration ([7]; 5.0 nM drug kept in media): 0.175 | Proliferation (relative proliferation), Short Duration [7, 11]: −0.147 | Proliferation (relative proliferation), Long Duration ([7]; 50.0 nM drug kept in media): 0.130 | inhibiting PDGF-induced fibroblast proliferation (in words) [7]: dose-responsive | cytotoxicity of drug concentrations tested [7]: not cytotoxic | IC50 [7]: ~30 nM

B1: reduced rhTrx: stable reduced form of recombinant human thioredoxin used as a single component (protein, UniProt P10599 2-105, looked up)
Thioredoxin: VKQIESKTAFQEALDAAGDKLVVVDFSATWCGPCKMIKPFFHSLSEKYSNVIFLEVDVDDCQDVASECEVKCMPTFQFFKKGQKVGEFSGANKEKLEATINELV
modifications: reduced form
increase of sol elastase activity [1]: 60% | inhibition of purified human neutrophil elastase (in words) [2]: inhibited
